Assay: Solubility statements
Format: physicochemical

Row | solubility in acetone (Solution V) (1.0 g in 100 g Solution V) | solubility in acetone (DSP in acetone) | solubility in Fluorinert (Fluorinert FC77) | SMILES
1 | dissolve completely | – | – | C[C@@H]1C[C@H]2[C@@H]3CCC4=CC(=O)C=C[C@]4(C)[C@@]3(F)[C@@H](O)C[C@]2(C)[C@@]1(O)C(=O)CO [dexamethasone]
2 | – | nonsolvent | nonsolvent | C[C@@H]1C[C@H]2[C@@H]3CCC4=CC(=O)C=C[C@]4(C)[C@@]3(F)[C@@H](O)C[C@]2(C)[C@@]1(O)C(=O)COP(=O)(O)O [DSP, dexamethasone sodium phosphate]

Reference: US10688188B2, “Polytetrafluoroethylene co-polymer emulsions” (W. L. Gore & Associates, Inc., priority 2012, dated 2020)
